Laboratory results as given in patent EP3875086A1, “DUAL-INHIBITORS OF CELLULAR NECROPTOSIS AND FERROPTOSIS FOR USE IN THE TREATMENT OF ORGAN TRANSPLANT PATIENTS” (Technische Universität Dresden, priority 2020, dated 2021).
“Also recorded” adds a separate entry of the source.

Legend:
NIH3T3 cells [1] = assay: Inhibition of TNF/Birinapant/zVAD (TSZ)-induced necroptosis, flow cytometry (annexinV / 7-AAD); format: cell-based, Murine; conditions: TNF + Birinapant + z-VAD-fmk (TSZ), 18 h
Description: (§1) • Figure 1: Overview of chemical structures of different necrostatins. Structural differences between Nec-1f in comparison to known necroptosis inhibitors Nec-1 and Nec-1s. Highlighted are the main residues involved in facilitating protection from necroptosis and/or ferroptosis. • Figure 2: Biotinylation of Nec-1. Simplified scheme of linking the target molecule Nec-1 to a biotin anker. […] (A, B) Inhibition of cell death by Nec-1f in NIH3T3 cells was assessed by flow cytometry. Cells were treated with the ferroptosis inducer RSL-3 (1.13 µM) for 6 h with or without simultaneous substitution of necrostatins. The percentage of cells positive for annexinV and 7-AAD was recorded. (C, D) Viability of NIH3T3 cells after induction of ferroptosis. Cells were treated with 1.13 µM RSL-3 for 6 h and collected for flow cytometry. […] (A, B) Inhibition of necroptotic cell death by Nec-1f in NIH3T3 cells was assessed by flow cytometry. […] The percentage of cells positive for annexinV and 7-AAD was recorded. […] (A, B) After 48h mice were sacrificed and serum creatinine levels and serum urea levels were measured as markers of renal function and intoxication. […]
(§2) Phosphatidylserine exposure to the outer cell membrane of apoptotic cells or at the inner plasma membrane of necrotic cells and incorporation of 7-AAD into necrotic cells were quantified by fluorescence-activated cell sorting (FACS) analysis. […]

[2] = Murine kidney ischemia-reperfusion injury model; format: in vivo, C57BL/6 mice; conditions: mice, 30 min ischemia
Description: • Figure 1: Overview of chemical structures of different necrostatins. Structural differences between Nec-1f in comparison to known necroptosis inhibitors Nec-1 and Nec-1s. Highlighted are the main residues involved in facilitating protection from necroptosis and/or ferroptosis. • Figure 2: Biotinylation of Nec-1. Simplified scheme of linking the target molecule Nec-1 to a biotin anker. […] (A, B) Inhibition of cell death by Nec-1f in NIH3T3 cells was assessed by flow cytometry. Cells were treated with the ferroptosis inducer RSL-3 (1.13 µM) for 6 h with or without simultaneous substitution of necrostatins. The percentage of cells positive for annexinV and 7-AAD was recorded. (C, D) Viability of NIH3T3 cells after induction of ferroptosis. Cells were treated with 1.13 µM RSL-3 for 6 h and collected for flow cytometry. […] (A, B) Inhibition of necroptotic cell death by Nec-1f in NIH3T3 cells was assessed by flow cytometry. Cells were treated with the TNF, Birinapant and z-VAD-fmk (TSZ) to induce necroptosis. After 18 h necroptosis induction with or without simultaneous substitution of necrostatins the cells were harvested and stained for flow cytometry. The percentage of cells positive for annexinV and 7-AAD was recorded. (C, D) Viability of NIH3T3 cells 18h after induction of necroptosis via TSZ treatment. […] Animals were subjected to 30 min of ischemia after i.p. injection of 0.6 mg Nec-1f per kg bodyweight or the respective vehicle control in PBS. (A, B) After 48h mice were sacrificed and serum creatinine levels and serum urea levels were measured as markers of renal function and intoxication. Error bars represent standard deviation. • Figure 6: Synthesis of 5-[(7-Chloro-1H-indol-3-yl)methyl]-3-methyl-2-thioxo-imidazolidin-4-one (1-3; Nec-1f) according to example 2. • Figure 7: Synthesis of 5-[(3aS,4R,6aR)-2-Oxo-1,3,3a,4,6,6a-hexahydrothieno[3,4-d]imidazol-4-yl]-N-[[1-[2-[2-[2-[[3-[(1-methyl-5-oxo-2-thioxo-imidazolidin-4-yl)methyl]-1H-indol-7-yl]oxy]ethoxy]ethoxy]ethyl]triazol-4-yl]methyl]pentanamide (2-8; biotinylated Nec-1) according to example 3. […]

NIH3T3 cells [3] = assay: Inhibition of RSL-3-induced ferroptosis, flow cytometry (annexinV / 7-AAD); format: cell-based, Murine; conditions: RSL-3 1.13 µM for 6 h, with simultaneous necrostatin
Description: as §1, §2

[4] = 0.6 mg Nec-1f per kg bodyweight i.p. 15 min before ischemia, 48 h after reperfusion

SMILES: CN1C(=O)C(Cc2c[nH]c3c(Cl)cccc23)NC1=S (centres unmarked) [Nec-1f, 5-[(7-Chloro-1H-indol-3-yl)methyl]-3-methyl-2-thioxo-imidazolidin-4-one]
- assays used to detect necroptosis (cell death / viability, annexinV and 7-AAD) (NIH3T3 cells [1]): protects cells from undergoing necroptosis; also recorded: reversed
- protection in animal model of renal ischemia-reperfusion injury ([2]; 0.6 mg Nec-1f per kg bodyweight i.p.): protective
- serum creatinine levels (marker of renal function) [2, 4]: reversed
- serum urea levels (intoxication marker) [2, 4]: reversed
- assays used to detect ferroptosis (cell death / viability, annexinV and 7-AAD) (NIH3T3 cells [3]): protects cells from undergoing ferroptosis; also recorded: reversed
